Test results as given in the NIST ThermoML archive (doi:10.1016/j.jct.2004.09.021).
Numbers after ± are expanded uncertainties.

What was measured:
[1] = refractive index (Na D-line) (dimensionless); conditions: 101.33 kPa, Liquid
[2] = 101 kPa, Liquid
[3] = xn = mol fraction of the nth substance listed; conditions: 101 kPa, Liquid
[4] = refractive index (Na D-line) (dimensionless); xn = mol fraction of the nth substance listed; conditions: 101 kPa, Liquid

COc1ccccc1 [anisole]
Conditions	mass density, 293.15 K [kg/m3]	mass density, 298.15 K [kg/m3]	mass density, 303.15 K [kg/m3]	refractive index, 293.15 K	refractive index, 298.15 K	refractive index, 303.15 K	viscosity, 293.15 K [mPa·s]	viscosity, 298.15 K [mPa·s]	viscosity, 303.15 K [mPa·s]
[1]	–	–	–	1.5161 ± 0.0009	1.5141 ± 0.0009	1.5129 ± 0.0009	–	–	–
[2]	993.81 ± 0.53	989.15 ± 0.53	984.42 ± 0.53	–	–	–	1.085 ± 0.018	1.017 ± 0.017	0.9285 ± 0.016

COc1ccccc1 [anisole] + CCCCCCCCCCCC
Conditions	mass density, 293.15 K [kg/m3]	mass density, 298.15 K [kg/m3]	mass density, 303.15 K [kg/m3]	refractive index, 293.15 K	refractive index, 298.15 K	refractive index, 303.15 K	viscosity, 293.15 K [mPa·s]	viscosity, 298.15 K [mPa·s]	viscosity, 303.15 K [mPa·s]
[3], x1 = 0.0992	760.26 ± 0.75	756.57 ± 0.76	752.87 ± 0.76	–	–	–	1.413 ± 0.023	1.312 ± 0.022	1.197 ± 0.02
[3], x1 = 0.2015	773.6 ± 0.73	769.83 ± 0.74	766.07 ± 0.74	–	–	–	1.341 ± 0.022	1.248 ± 0.021	1.138 ± 0.019
[3], x1 = 0.2969	787.75 ± 0.71	783.97 ± 0.72	780.1 ± 0.72	–	–	–	1.272 ± 0.021	1.181 ± 0.02	1.081 ± 0.018
[3], x1 = 0.4102	807.23 ± 0.69	803.3 ± 0.69	799.35 ± 0.7	–	–	–	1.19 ± 0.02	1.104 ± 0.019	1.003 ± 0.017
[3], x1 = 0.4898	822.92 ± 0.67	818.98 ± 0.67	814.93 ± 0.68	–	–	–	1.138 ± 0.019	1.052 ± 0.018	0.9616 ± 0.017
[3], x1 = 0.6099	850.24 ± 0.64	846.1 ± 0.64	841.96 ± 0.64	–	–	–	1.074 ± 0.018	0.9944 ± 0.017	0.9147 ± 0.016
[3], x1 = 0.702	875.28 ± 0.61	871.03 ± 0.61	866.78 ± 0.62	–	–	–	1.039 ± 0.018	0.9639 ± 0.016	0.8922 ± 0.015
[3], x1 = 0.8023	907.62 ± 0.58	903.24 ± 0.58	898.86 ± 0.59	–	–	–	1.032 ± 0.017	0.9569 ± 0.016	0.8858 ± 0.015
[3], x1 = 0.8976	944.56 ± 0.56	940.04 ± 0.56	935.51 ± 0.56	–	–	–	1.046 ± 0.018	0.9718 ± 0.017	0.9132 ± 0.016
[3], x1 = 1	993.81 ± 0.53	989.15 ± 0.53	984.42 ± 0.53	–	–	–	1.085 ± 0.018	1.017 ± 0.017	0.9285 ± 0.016
[4], x1 = 0.106	–	–	–	1.4239 ± 0.0013	1.4199 ± 0.0011	1.4163 ± 0.001	–	–	–
[4], x1 = 0.208	–	–	–	1.4289 ± 0.0012	1.4251 ± 0.0011	1.4213 ± 0.0011	–	–	–
[4], x1 = 0.29	–	–	–	1.4335 ± 0.0012	1.4298 ± 0.0011	1.4263 ± 0.001	–	–	–
[4], x1 = 0.391	–	–	–	1.4406 ± 0.0011	1.4371 ± 0.0011	1.4339 ± 0.001	–	–	–
[4], x1 = 0.4886	–	–	–	1.4488 ± 0.0011	1.4455 ± 0.001	1.4426 ± 0.001	–	–	–
[4], x1 = 0.607	–	–	–	1.4601 ± 0.0011	1.457 ± 0.001	1.4545 ± 0.0009	–	–	–
[4], x1 = 0.7055	–	–	–	1.4707 ± 0.0011	1.4677 ± 0.001	1.4654 ± 0.0009	–	–	–
[4], x1 = 0.7845	–	–	–	1.4809 ± 0.0011	1.4779 ± 0.001	1.4756 ± 0.0009	–	–	–
[4], x1 = 0.88	–	–	–	1.4959 ± 0.0011	1.493 ± 0.001	1.4908 ± 0.0009	–	–	–
[4], x1 = 1	–	–	–	1.5161 ± 0.0009	1.5141 ± 0.0009	1.5129 ± 0.0009	–	–	–

CCCCCCCCCC [decane]
Conditions	mass density, 293.15 K [kg/m3]	mass density, 298.15 K [kg/m3]	mass density, 303.15 K [kg/m3]	refractive index, 293.15 K	refractive index, 298.15 K	refractive index, 303.15 K	viscosity, 293.15 K [mPa·s]	viscosity, 298.15 K [mPa·s]	viscosity, 303.15 K [mPa·s]
[1]	–	–	–	1.4148 ± 0.001	1.4118 ± 0.001	1.4089 ± 0.001	–	–	–
[2]	729.91 ± 0.8	726.16 ± 0.8	722.36 ± 0.81	–	–	–	0.9169 ± 0.016	0.8512 ± 0.015	0.7898 ± 0.014

CCCCCCCCCC [decane] + COc1ccccc1
x2 = 0
Conditions	mass density, 293.15 K [kg/m3]	mass density, 298.15 K [kg/m3]	mass density, 303.15 K [kg/m3]	refractive index, 293.15 K	refractive index, 298.15 K	refractive index, 303.15 K	viscosity, 293.15 K [mPa·s]	viscosity, 298.15 K [mPa·s]	viscosity, 303.15 K [mPa·s]
[3]	729.91 ± 0.8	726.16 ± 0.8	722.36 ± 0.81	–	–	–	0.9169 ± 0.016	0.8512 ± 0.015	0.7898 ± 0.014
[4]	–	–	–	1.4148 ± 0.001	1.4118 ± 0.001	1.4089 ± 0.001	–	–	–

CCCCCCCCCCCC [dodecane]
Conditions	mass density, 293.15 K [kg/m3]	mass density, 298.15 K [kg/m3]	mass density, 303.15 K [kg/m3]	refractive index, 293.15 K	refractive index, 298.15 K	refractive index, 303.15 K	viscosity, 293.15 K [mPa·s]	viscosity, 298.15 K [mPa·s]	viscosity, 303.15 K [mPa·s]
[1]	–	–	–	1.421 ± 0.0011	1.4172 ± 0.0011	1.4135 ± 0.0011	–	–	–
[2]	748.78 ± 0.77	745.14 ± 0.77	741.52 ± 0.78	–	–	–	1.487 ± 0.024	1.373 ± 0.023	1.25 ± 0.021

CCCCCCCCCCCC [dodecane] + COc1ccccc1
x2 = 0
Conditions	mass density, 293.15 K [kg/m3]	mass density, 298.15 K [kg/m3]	mass density, 303.15 K [kg/m3]	refractive index, 293.15 K	refractive index, 298.15 K	refractive index, 303.15 K	viscosity, 293.15 K [mPa·s]	viscosity, 298.15 K [mPa·s]	viscosity, 303.15 K [mPa·s]
[3]	748.78 ± 0.77	745.14 ± 0.77	741.52 ± 0.78	–	–	–	1.487 ± 0.024	1.373 ± 0.023	1.25 ± 0.021
[4]	–	–	–	1.421 ± 0.0011	1.4172 ± 0.0011	1.4135 ± 0.0011	–	–	–

CCCCCCC [heptane]
Conditions	mass density, 293.15 K [kg/m3]	mass density, 298.15 K [kg/m3]	mass density, 303.15 K [kg/m3]	refractive index, 293.15 K	refractive index, 298.15 K	refractive index, 303.15 K	viscosity, 293.15 K [mPa·s]	viscosity, 298.15 K [mPa·s]	viscosity, 303.15 K [mPa·s]
[1]	–	–	–	1.3872 ± 0.0009	1.3855 ± 0.0009	1.3827 ± 0.001	–	–	–
[2]	683.96 ± 0.87	679.77 ± 0.88	675.5 ± 0.88	–	–	–	0.4127 ± 0.0081	0.3909 ± 0.0078	0.3702 ± 0.0075

CCCCCCC [heptane] + COc1ccccc1
x2 = 0
Conditions	mass density, 293.15 K [kg/m3]	mass density, 298.15 K [kg/m3]	mass density, 303.15 K [kg/m3]	refractive index, 293.15 K	refractive index, 298.15 K	refractive index, 303.15 K	viscosity, 293.15 K [mPa·s]	viscosity, 298.15 K [mPa·s]	viscosity, 303.15 K [mPa·s]
[3]	683.96 ± 0.87	679.77 ± 0.88	675.5 ± 0.88	–	–	–	0.4127 ± 0.0081	0.3909 ± 0.0078	0.3702 ± 0.0075
[4]	–	–	–	1.3872 ± 0.0009	1.3855 ± 0.0009	1.3827 ± 0.001	–	–	–

CCCCCC [hexane]
Conditions	mass density, 293.15 K [kg/m3]	mass density, 298.15 K [kg/m3]	mass density, 303.15 K [kg/m3]	refractive index, 293.15 K	refractive index, 298.15 K	refractive index, 303.15 K	viscosity, 293.15 K [mPa·s]	viscosity, 298.15 K [mPa·s]	viscosity, 303.15 K [mPa·s]
[1]	–	–	–	1.3759 ± 0.001	1.3732 ± 0.001	1.3709 ± 0.0009	–	–	–
[2]	659.5 ± 0.91	654.96 ± 0.92	650.42 ± 0.93	–	–	–	0.3114 ± 0.0066	0.2974 ± 0.0064	0.2838 ± 0.0062

CCCCCC [hexane] + COc1ccccc1
x2 = 0
Conditions	mass density, 293.15 K [kg/m3]	mass density, 298.15 K [kg/m3]	mass density, 303.15 K [kg/m3]	refractive index, 293.15 K	refractive index, 298.15 K	refractive index, 303.15 K	viscosity, 293.15 K [mPa·s]	viscosity, 298.15 K [mPa·s]	viscosity, 303.15 K [mPa·s]
[3]	659.5 ± 0.91	654.96 ± 0.92	650.42 ± 0.93	–	–	–	0.3114 ± 0.0066	0.2974 ± 0.0064	0.2838 ± 0.0062
[4]	–	–	–	1.3759 ± 0.001	1.3732 ± 0.001	1.3709 ± 0.0009	–	–	–

CCCCCCCCC [nonane]
Conditions	mass density, 293.15 K [kg/m3]	mass density, 298.15 K [kg/m3]	mass density, 303.15 K [kg/m3]	refractive index, 293.15 K	refractive index, 298.15 K	refractive index, 303.15 K	viscosity, 293.15 K [mPa·s]	viscosity, 298.15 K [mPa·s]	viscosity, 303.15 K [mPa·s]
[1]	–	–	–	1.404 ± 0.0009	1.4027 ± 0.0009	1.4002 ± 0.001	–	–	–
[2]	717.59 ± 2.9	713.71 ± 3	709.81 ± 3	–	–	–	0.7136 ± 0.013	0.6715 ± 0.012	0.6307 ± 0.011

CCCCCCCCC [nonane] + COc1ccccc1
x2 = 0
Conditions	mass density, 293.15 K [kg/m3]	mass density, 298.15 K [kg/m3]	mass density, 303.15 K [kg/m3]	refractive index, 293.15 K	refractive index, 298.15 K	refractive index, 303.15 K	viscosity, 293.15 K [mPa·s]	viscosity, 298.15 K [mPa·s]	viscosity, 303.15 K [mPa·s]
[3]	717.59 ± 2.9	713.71 ± 3	709.81 ± 3	–	–	–	0.7136 ± 0.013	0.6715 ± 0.012	0.6307 ± 0.011
[4]	–	–	–	1.404 ± 0.0009	1.4027 ± 0.0009	1.4002 ± 0.001	–	–	–

CCCCCCCC [octane]
Conditions	mass density, 293.15 K [kg/m3]	mass density, 298.15 K [kg/m3]	mass density, 303.15 K [kg/m3]	refractive index, 293.15 K	refractive index, 298.15 K	refractive index, 303.15 K	viscosity, 293.15 K [mPa·s]	viscosity, 298.15 K [mPa·s]	viscosity, 303.15 K [mPa·s]
[1]	–	–	–	1.3965 ± 0.0009	1.3947 ± 0.0009	1.3926 ± 0.0009	–	–	–
[2]	702.61 ± 0.84	698.57 ± 0.85	694.56 ± 0.85	–	–	–	0.5464 ± 0.01	0.5123 ± 0.0096	0.483 ± 0.0091

CCCCCCCC [octane] + COc1ccccc1
x2 = 0
Conditions	mass density, 293.15 K [kg/m3]	mass density, 298.15 K [kg/m3]	mass density, 303.15 K [kg/m3]	refractive index, 293.15 K	refractive index, 298.15 K	refractive index, 303.15 K	viscosity, 293.15 K [mPa·s]	viscosity, 298.15 K [mPa·s]	viscosity, 303.15 K [mPa·s]
[3]	702.61 ± 0.84	698.57 ± 0.85	694.56 ± 0.85	–	–	–	0.5464 ± 0.01	0.5123 ± 0.0096	0.483 ± 0.0091
[4]	–	–	–	1.3965 ± 0.0009	1.3947 ± 0.0009	1.3926 ± 0.0009	–	–	–
